{"source": "patent US20120270954A1", "about": "“METHODS FOR MAINTAINING EYE HEALTH AND AMELIORATING OPTHALMIC MALADIES IN CANINES” (priority 2009, published 2012)", "key": {"[1]": {"type": "in vivo", "conditions": "for Antioxidant level in Cortical/Epithelial Layer (C) of dog lens / Antioxidant level in Nuclear Layer (N) of dog lens: lenses of seven dogs", "protocol": "Eye samples were collected from seven (7) dogs. Eye balls were removed within 1 hour of death at necropsy, stored in individual containers at 4° C., and stored on wet ice for dissection within one day. The eyes were dissected to take out lenses. The lenses were separated into two layers: (1) an outer, soft cortical/epithelial layer and (2) an inner, hard nuclear layer. The layers were analyzed for carotenoids, vitamin C, and vitamin E following standard procedures given in Craft N E, Haitema T B, Garnett K M, Fitch K A, Dorey C K. Carotenoid, tocopherol, and retinol concentrations in elderly human brain. J Nutr. Health Aging 2004; 8:156-62."}, "[2]": {"conditions": "previous studies, humans regularly consume β-carotene in their diets; cited from earlier work"}}, "note": "Like-named read-outs stand apart in the source and are kept apart here."}
{"compound": "O=C1O[C@H]([C@@H](O)CO)C(O)=C1O", "note": "[Vitamin C, vitamin C]", "values": [{"measurement": "Antioxidant level in Cortical/Epithelial Layer (C) of dog lens", "setting": "[1]", "value": 112.38, "unit": "µg/g"}, {"measurement": "Antioxidant level in Nuclear Layer (N) of dog lens", "setting": "[1]; nuclear layer", "value": 23.59, "unit": "µg/g"}]}
{"compound": "CC1=C(/C=C/C(C)=C/C=C/C(C)=C/C=C/C=C(C)/C=C/C=C(C)/C=C/C2=C(C)CCCC2(C)C)C(C)(C)CCC1", "note": "[β-Carotene, β-carotene]", "values": [{"measurement": "β-Carotene concentration in lens layer", "setting": "[1]; Dog 1, BEA, M/n, age 15.50, layer N", "value": 0.79, "unit": "ng/g"}, {"measurement": "β-Carotene concentration in lens layer", "setting": "[1]; Dog 2, BEA, M/n, age 13.55, layer C", "value": 1.06, "unit": "ng/g"}, {"measurement": "β-Carotene concentration in lens layer", "setting": "[1]; Dog 2, BEA, M/n, age 13.55, layer N", "value": 0.60, "unit": "ng/g"}, {"measurement": "β-Carotene concentration in lens layer", "setting": "[1]; Dog 3, LAB, F/s, age 13.41, layer C", "value": 0.73, "unit": "ng/g"}, {"measurement": "β-Carotene concentration in lens layer", "setting": "[1]; Dog 3, LAB, F/s, age 13.41, layer N", "value": 1.26, "unit": "ng/g"}, {"measurement": "β-Carotene concentration in lens layer", "setting": "[1]; Dog 4, LAB, M/n, age 14.22, layer C", "value": 0.71, "unit": "ng/g"}, {"measurement": "β-Carotene concentration in lens layer", "setting": "[1]; Dog 4, LAB, M/n, age 14.22, layer N", "value": 0.79, "unit": "ng/g"}, {"measurement": "β-Carotene concentration in lens layer", "setting": "[1]; Dog 5, Man T, F/s, age 12.79, layer C", "value": 1.35, "unit": "ng/g"}, {"measurement": "β-Carotene concentration in lens layer", "setting": "[1]; Dog 5, Man T, F/s, age 12.79, layer N", "value": 1.60, "unit": "ng/g"}, {"measurement": "β-Carotene concentration in lens layer", "setting": "[1]; Dog 6, SIB HUSKY, M/n, age 6.10, layer C", "value": 4.26, "unit": "ng/g"}, {"measurement": "β-Carotene concentration in lens layer", "setting": "[1]; Dog 6, SIB HUSKY, M/n, age 6.10, layer N", "value": 8.17, "unit": "ng/g"}, {"measurement": "β-Carotene concentration in lens layer", "setting": "[1]; Dog 7, LAB, F/s, age 9.31, layer C", "value": 2.35, "unit": "ng/g"}, {"measurement": "β-Carotene concentration in lens layer", "setting": "[1]; Dog 7, LAB, F/s, age 9.31, layer N", "value": 5.99, "unit": "ng/g"}, {"measurement": "cortical layer samples that accumulated β-carotene", "setting": "[1]; dog lens, cortical layer, seven dogs", "value": "six out of seven cortical layer samples accumulated"}, {"measurement": "nuclear layer samples that accumulated β-carotene", "setting": "[1]; dog lens, nuclear layer, seven dogs", "value": "all nuclear layer samples accumulated"}, {"measurement": "Antioxidant level in Cortical/Epithelial Layer (C) of dog lens", "setting": "[1]", "value": 0.00174, "unit": "µg/g"}, {"measurement": "Antioxidant level in Nuclear Layer (N) of dog lens", "setting": "[1]; nuclear layer", "value": 0.00274, "unit": "µg/g"}, {"measurement": "detection or accumulation in human lenses", "setting": "[2]", "value": "not detected or accumulated in human lenses"}]}
{"compound": "vitamin E", "values": [{"measurement": "Antioxidant level in Cortical/Epithelial Layer (C) of dog lens", "setting": "[1]", "value": 0.93, "unit": "µg/g"}, {"measurement": "Antioxidant level in Nuclear Layer (N) of dog lens", "setting": "[1]; nuclear layer", "value": 0.64, "unit": "µg/g"}]}
